In US20260092057A1, “BCL-XL/BCL-2 DEGRADERS AND USES THEREOF” (Kymera Therapeutics, Inc., priority 2022, published 2026):
Where two headings read alike, the source gives them in different places.

What was measured:
Type in all cases: cell-based
Caki-2 cells = assay: CTG (CellTiter-Glo) cell viability assay, Caki-2; details: Caki-2, 3-day, read-out: CTG Chempartner/PHA- Caki-2 3-day: Average external-IC50
Procedure, shortened: (§1)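 Cells seeded at 10,000 per well, then exposed to a 9-point 1:3 dilution series from 10 µM top concentration (0.2% DMSO) for 3 days at 37 °C, 5% CO2. Viability measured by CellTiter-Glo luminescence; IC50 from a three-parameter logistic fit.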

MOLT-4 cells = assay: CTG (CellTiter-Glo) cell viability assay, MOLT-4; details: Homo sapiens, MOLT-4, 72 h, MOLT-4, 3 day; read-out: CTG Cell Viability Assay - MOLT-4 3 day: Average external-IC50
Procedure, shortened: as §1

BCL-XL = target: T1, BCL-XL (Homo sapiens, UniProt Q07817); assay: BCL-XL degradation assay in MOLT-4 cells (ELISA, 6 h); details: for DC50: read-out: Bcl-xL ELISA in MOLT-4 degradation 6 h: External Abs-DC50
T1 construct: BCL-XL degradation results in MOLT-4 cells for compounds of the invention; endogenous in cells; host or cells: MOLT-4
T1 sequence (Q07817 whole entry): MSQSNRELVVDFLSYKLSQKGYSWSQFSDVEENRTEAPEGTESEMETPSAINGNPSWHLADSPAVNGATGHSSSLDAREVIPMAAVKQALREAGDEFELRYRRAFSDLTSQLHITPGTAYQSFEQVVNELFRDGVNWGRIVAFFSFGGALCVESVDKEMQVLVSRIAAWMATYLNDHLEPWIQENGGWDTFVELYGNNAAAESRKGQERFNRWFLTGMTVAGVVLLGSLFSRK

Row | Structure (SMILES) | IC50 (MOLT-4 cells) [nM] | Dmax (BCL-XL) [%] | DC50 (BCL-XL) [nM] | IC50 (Caki-2 cells; Homo sapiens, CAKI-2, 72 h) [nM] | IC50 (Caki-2 cells) [nM]
1 | C#Cc1ccc([C@H](C)NC(=O)[C@@H]2C[C@@H](O)CN2C(=O)[C@@H](NC(=O)CCCCCC(=O)N2CCN(CC[C@H](CSc3ccccc3)Nc3ccc(S(=O)(=O)NC(=O)c4ccc(N5CCC([C@H](O)c6ccccc6-c6ccc(Cl)cc6)CC5)cc4)cc3S(=O)(=O)C(F)(F)F)CC2)C(C)(C)C)cc1 (single isomer, unassigned) [I-33] | 1000 to 3000 | 50 to 75 | 100 to 500 | > 30000 | 
2 | Cc1ncsc1-c1ccc(CNC(=O)[C@@H]2C[C@@H](O)CN2C(=O)[C@@H](NC(=O)CCCCCCC(=O)N2CCN(C[C@]3(C)CCC(c4ccc(Cl)cc4)=C(CN4CCN(c5ccc(C(=O)NS(=O)(=O)c6ccc(NCCCN7CCOCC7)c(S(=O)(=O)C(F)(F)F)c6)c(Oc6cnc7[nH]ccc7c6)c5)CC4)C3)CC2)C(C)(C)C)cc1 [I-131] | 100 to 1000 | < 50 | 500 to 1000 |  | > 30000
3 | Cc1ncsc1-c1ccc([C@H](C)NC(=O)[C@@H]2C[C@@H](O)CN2C(=O)[C@@H](NC(=O)C2CCN(c3ccc(NC(=O)c4ccc(-c5ccc(Cl)cc5)c([C@H](O)C5CCN(c6ccc(C(=O)NS(=O)(=O)c7ccc(N[C@H](CCN(C)CCO)CSc8ccccc8)c(S(=O)(=O)C(F)(F)F)c7)cc6)CC5)c4)cc3)CC2)C(C)(C)C)cc1 (single isomer, unassigned) [I-27] | > 3000 | < 50 | 500 to 1000 | > 30000 | 
4 | Cc1ncsc1-c1ccc(CNC(=O)[C@@H]2C[C@@H](O)CN2C(=O)[C@@H](NC(=O)C2(F)CC2)C(C)(C)C)c(OCCN2CCN(CC[C@H](CSc3ccccc3)Nc3ccc(S(=O)(=O)NC(=O)c4ccc(N5CCC6(CC5)CC(N5CCC[C@H]5c5ccccc5C5CC5)C6)cc4)cc3S(=O)(=O)C(F)(F)F)CC2)c1 [I-31, (2S,4R)—N-(2-(2-(4-((R)-3-((4-(N-(4-(2-((S)-2-(2-cyclopropylphenyl)pyrolidine-1-yl)-7-azaspiro[3.5]nonan-7-yl)benzoyl)sulfamoyl)-2-((trifluoromethyl)sulfonyl)phenyl)amino)-4-(phenylthio)butyl)piperazin-1-yl)ethoxy)-4 (4-methylthiazol-5-yl)benzyl)-1-((S)-2-(1-fluorocyclopropanecarboxamido)-3,3-dimethylbutanoyl)-4-hydroxypyrrolidine-2-carboxamide] | 100 to 1000 | 50 to 75 | 10 to 100 | < 5000 | 
5 | Cc1ncsc1-c1ccc([C@H](C)NC(=O)[C@@H]2C[C@@H](O)CN2C(=O)[C@@H](NC(=O)CCCCCC(=O)N2CCN(CCCNc3ccc(S(=O)(=O)NC(=O)c4ccc(N5CCC([C@H](O)c6ccccc6-c6ccc(Cl)cc6)CC5)cc4Oc4cnc5[nH]ccc5c4)cc3S(=O)(=O)C(F)(F)F)CC2)C(C)(C)C)cc1 (single isomer, unassigned) [I-38] | 100 to 1000 | 50 to 75 | 100 to 500 | > 30000 | 
6 | Cc1ncsc1-c1ccc([C@H](C)NC(=O)[C@@H]2C[C@@H](O)CN2C(=O)[C@@H](NC(=O)CCCCCN2CCN(CCCNc3ccc(S(=O)(=O)NC(=O)c4ccc(N5CCN(CC6=C(c7ccc(Cl)cc7)CC(C)(C)CC6)CC5)cc4Oc4cnc5[nH]ccc5c4)cc3S(=O)(=O)C(F)(F)F)CC2)C(C)(C)C)cc1 [I-74] | 100 to 1000 | < 50 | 500 to 1000 | > 30000 | 
7 | Cc1ncsc1-c1ccc([C@H](C)NC(=O)[C@@H]2C[C@@H](O)CN2C(=O)[C@@H](NC(=O)CCCCCCC(=O)N2CCN(C[C@]3(C)CCC(c4ccc(Cl)cc4)=C(CN4CCN(c5ccc(C(=O)NS(=O)(=O)c6ccc(NCCCN7CCOCC7)c(S(=O)(=O)C(F)(F)F)c6)c(Oc6cnc7[nH]ccc7c6)c5)CC4)C3)CC2)C(C)(C)C)cc1 [I-65] | < 100 | 50 to 75 | 10 to 100 | 10000 to 30000 | 
8 | Cc1ncsc1-c1ccc([C@H](C)NC(=O)[C@@H]2C[C@@H](O)CN2C(=O)[C@@H](NC(=O)CCCCCC(=O)N2CCN(CCCNc3ccc(S(=O)(=O)NC(=O)c4ccc(N5CCN(CC6=C(c7ccc(Cl)cc7)CC(C)(C)CC6)CC5)cc4Oc4cnc5[nH]ccc5c4)cc3S(=O)(=O)C(F)(F)F)CC2)C(C)(C)C)cc1 [I-22, (2S,4R)-1-((S)-2-(7-(4-(3-((4-(N-(2-((1H-pyrrolo[2,3-b]pyridin-5-yl)oxy)-4-(4-((4′-chloro-5,5-dimethyl-3,4,5,6-tetrahydro-[1,1′-biphenyl]-2-yl)methyl)piperazin-1-yl)benzoyl)sulfamoyl)-2-((trifluoromethyl)sulfonyl)phenyl)amino)propyl)piperazin-1-yl)-7-oxoheptanamido)-3,3-dimethylbutanoyl)-4-hydroxy-N—((S)-1-(4-(4-methylthiazol-5-yl)phenyl)ethyl)pyrrolidine-2-carboxamide] | 100 to 1000 | > 75 | 10 to 100 | 10000 to 30000 | 
9 | Cc1ncsc1-c1ccc([C@H](C)NC(=O)[C@@H]2C[C@@H](O)CN2C(=O)[C@@H](NC(=O)CCCCCC(=O)N2CCN(CCCNc3ccc(S(=O)(=O)NC(=O)c4ccc(N5CCN(Cc6ccccc6-c6ccc(Cl)cc6)CC5)cc4Oc4cnc5[nH]ccc5c4)cc3S(=O)(=O)C(F)(F)F)CC2)C(C)(C)C)cc1 [I-51] | 1000 to 3000 | 50 to 75 | 100 to 500 | > 30000 | 

More lines, main results first:

Row | IC50 (MOLT-4 cells) [nM] | Dmax (BCL-XL) [%] | DC50 (BCL-XL) [nM] | Structure (SMILES) | IC50 (Caki-2 cells; Homo sapiens, CAKI-2, 72 h) [nM] | IC50 (Caki-2 cells) [nM]
10 | > 3000 | 50 to 75 | 100 to 500 | Cc1ncsc1-c1ccc([C@H](C)NC(=O)[C@@H]2C[C@@H](O)CN2C(=O)[C@@H](NC(=O)CCCCCCCC(=O)Nc2ccc(-c3ccc(Cl)cc3)c(CN3CCN(c4ccc(C(=O)NS(=O)(=O)c5ccc(N[C@H](CCN(C)C)CSc6ccccc6)c([N+](=O)[O-])c5)cc4)CC3)c2)C(C)(C)C)cc1 [I-10] | > 30000 | 
11 | > 3000 | < 50 | 500 to 1000 | Cc1ncsc1-c1ccc([C@H](C)NC(=O)[C@@H]2C[C@@H](O)CN2C(=O)[C@@H](NC(=O)CCCCCCCCN2CCN(Cc3ccc(-c4ccc(Cl)cc4)c(CN4CCN(c5ccc(C(=O)NS(=O)(=O)c6ccc(N[C@H](CCN(C)C)CSc7ccccc7)c([N+](=O)[O-])c6)cc5)CC4)c3)CC2)C(C)(C)C)cc1 [I-9] | > 30000 | 
12 | 100 to 1000 | > 75 | < 10 | Cc1ncsc1-c1ccc([C@H](C)NC(=O)[C@@H]2C[C@@H](O)CN2C(=O)[C@@H](NC(=O)CCCCCC(=O)N2CCN(c3ccc(-c4ccc(Cl)cc4)c([C@H](O)C4CCN(c5ccc(C(=O)NS(=O)(=O)c6ccc(N[C@H](CCN(C)CCO)CSc7ccccc7)c(S(=O)(=O)C(F)(F)F)c6)cc5)CC4)c3)CC2)C(C)(C)C)cc1 (single isomer, unassigned) [I-113] | > 30000 | 
13 | 100 to 1000 | 50 to 75 | 100 to 500 | Cc1ncsc1-c1ccc([C@H](C)NC(=O)[C@@H]2C[C@@H](O)CN2C(=O)[C@@H](NC(=O)CCCCCCCC(=O)N2CCN(Cc3ccc(-c4ccc(Cl)cc4)c(CN4CCN(c5ccc(C(=O)NS(=O)(=O)c6ccc(N[C@H](CCN(C)C)CSc7ccccc7)c([N+](=O)[O-])c6)cc5)CC4)c3)CC2)C(C)(C)C)cc1 [I-8] | > 30000 | 
14 | > 3000 | 50 to 75 | 500 to 1000 | Cc1ncsc1-c1ccc([C@H](C)NC(=O)[C@@H]2C[C@@H](O)CN2C(=O)[C@@H](NC(=O)CCCCCCN2CCN(CC[C@H](CSc3ccccc3)Nc3ccc(S(=O)(=O)NC(=O)c4ccc(N5CCN(Cc6ccccc6-c6ccc(Cl)cc6)CC5)cc4)cc3[N+](=O)[O-])CC2)C(C)(C)C)cc1 [I-13] | > 30000 | 
15 | < 100 | > 75 | 10 to 100 | Cc1ncsc1-c1ccc([C@H](C)NC(=O)[C@@H]2C[C@@H](O)CN2C(=O)[C@@H](NC(=O)CCCCCC(=O)N2CCN(CC[C@H](CSc3ccccc3)Nc3ccc(S(=O)(=O)NC(=O)c4ccc(N5CCC([C@@H](O)c6ccccc6-c6ccc(Cl)cc6)CC5)cc4)cc3S(=O)(=O)C(F)(F)F)CC2)C(C)(C)C)cc1 [I-28, (2S,4R)-1-((S)-2-(7-(4-((R)-3-((4-(N-(4-(4-((R)-(4′-chloro-[1,1′-biphenyl]-2-yl)(hydroxy)methyl)piperidin-1-yl)benzoyl)sulfamoyl)-2-((trifluoromethyl)sulfonyl)phenyl)amino)-4-(phenylthio)butyl)piperazin-1-yl)-7-oxoheptanamido)-3,3-dimethylbutanoyl)-4-hydroxy-N—((S)-1-(4-(4-methylthiazol-5-yl)phenyl)ethyl)pyrrolidine-2-carboxamide] | 10000 to 30000 | 
16 | > 3000 | 50 to 75 | 500 to 1000 | Cc1ncsc1-c1ccc([C@H](C)NC(=O)[C@@H]2CC(O)CN2C(=O)[C@@H](NC(=O)CCCCCCC(=O)N2CCN(c3ccc(-c4ccc(Cl)cc4)c(CN4CCN(c5ccc(C(=O)NS(=O)(=O)c6ccc(N[C@H](CCN(C)C)CSc7ccccc7)c([N+](=O)[O-])c6)cc5)CC4)c3)CC2)C(C)(C)C)cc1 (stereo partly drawn) [I-4] | > 30000 | 
17 | 100 to 1000 | 50 to 75 | 10 to 100 | Cc1ncsc1-c1ccc(CNC(=O)[C@@H]2C[C@@H](O)CN2C(=O)[C@@H](NC(=O)CCCCCC(=O)N2CC3(CN(CC[C@H](CSc4ccccc4)Nc4ccc(S(=O)(=O)NC(=O)c5ccc(N6CCN([C@@H](O)c7ccccc7-c7ccc(Cl)cc7)CC6)cc5)cc4S(=O)(=O)C(F)(F)F)C3)C2)C(C)(C)C)cc1 [I-125] | > 30000 | 
18 | 100 to 1000 | > 75 | 10 to 100 | Cc1ncsc1-c1ccc([C@H](C)NC(=O)[C@@H]2C[C@@H](O)CN2C(=O)[C@@H](NC(=O)CCCCCCC(=O)N2CCN(Cc3ccc(-c4ccc(Cl)cc4)c(CN4CCN(c5ccc(C(=O)NS(=O)(=O)c6ccc(N[C@H](CCN(C)C)CSc7ccccc7)c([N+](=O)[O-])c6)cc5)CC4)c3)CC2)C(C)(C)C)cc1 [I-5] | > 30000 | 
